The results in this text go back to US11247965B2 (VenatoRx Pharmaceuticals, Inc., priority 2017, dated 2022).

A short description of series [1]: In vitro cytotoxicity, MTT cell viability assay in HepG2 cells. In kind it is cell-based. The conditions noted are these: human, Cytotoxicity CC50. An outline of the steps:
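Read-out: MTT formazan absorbance at 492 nm, expressed as % of vehicle signal; CC50 by 4-parameter non-linear regression. Parental HepG2, 20,000 cells/well, treated 7 days with compound from 30 μM down to 1.0 nM.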
On the technique in general: Tetrazolium assays rely on reduction of a dye to a coloured formazan, in cell work by metabolically active cells.

Series [2] concerns HBV replication in HepAD38 cells. Kind of series: Anti-HBV activity in HepAD38 cells, extracellular HBV DNA by QPCR. In kind it is cell-based, HBV (genotype D, serotype ayw). The conditions noted are these: Hepatitis B virus, HePAD38, 168 h, read-out: Anti-HBV EC50, HepAD38 cells, extracellular HBV DNA by QPCR, 7 days of incubation. Summed up:
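HepAD38 cells (HepG2 with tet-repressible HBV genotype D genome) seeded overnight, tetracycline removed, then treated 7 days with compounds (half-log dilutions, 30 μM–10 nM; 1:200 from DMSO). Supernatant HBV DNA quantified by QPCR against standard curve; % inhibition vs vehicle, EC50 by 4-parameter fit.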

On to `Cc1cc(NC(=O)c2ccc(F)c(C(F)(F)C(=O)N3CCc4sc(N)nc4C3)c2)ccc1F` [Example 308, 3-(2-(2-amino-6,7-dihydrothiazolo[4,5-c]pyridin-5(4H)-yl)-1,1-difluoro-2-oxoethyl)-4-fluoro-N-(4-fluoro-3-methylphenyl)benzamide], for which, in series [1], the CC50 – broadly, the concentration giving 50% cytotoxicity – at 7 days was 5 to 30 µM. For the same molecule, the EC50 (usually the midpoint of the concentration-response curve) in series [2] is below 5 µM.
With `Cc1cc(NC(=O)c2ccc(F)c(C(F)(F)C(=O)N3CCC(O)CC3)c2)cc(F)n1` [Example 160, 3-(1,1-difluoro-2-(4-hydroxypiperidin-1-yl)-2-oxoethyl)-4-fluoro-N-(2-fluoro-6-methylpyridin-4-yl)benzamide], the CC50 at 7 days in series [1] was in the range of 5 to 30 µM. Further, in series [2], the EC50 was in the range of 5 to 30 µM.
In series [1], `Cc1cc(NC(=O)c2ccc(F)c(C(F)(F)C(=O)N3CC4COCC(C3)C4O)c2)ccc1F` (stereo not shown) [Example 310, 3-(1,1-difluoro-2-(9-hydroxy-3-oxa-7-azabicyclo[3.3.1]nonan-7-yl)-2-oxoethyl)-4-fluoro-N-(4-fluoro-3-methylphenyl)benzamide] gave a CC50 at 7 days above 30 µM. Further, the EC50 in series [2] was below 5 µM.
For `Cc1cc(NC(=O)c2ccc(F)c(C(F)(F)C(=O)NC(C)(C)CO)c2)ccc1F` [Example 28, 3-(1,1-difluoro-2-((1-hydroxy-2-methylpropan-2-yl)amino)-2-oxoethyl)-4-fluoro-N-(4-fluoro-3-methylphenyl)benzamide] the same measures were above 30 µM and 5 to 30 µM.
For `Cc1cc(NC(=O)c2ccc(F)c(C(F)(F)C(=O)N3[C@H](C)CN(S(=O)(=O)C4CC4)C[C@@H]3C)c2)ccc1F` [Example 292, 3-(2-((2S,6R)-4-(cyclopropylsulfonyl)-2,6-dimethylpiperazin-1-yl)-1,1-difluoro-2-oxoethyl)-4-fluoro-N-(4-fluoro-3-methylphenyl)benzamide] the same measures were 5 to 30 µM and below 5 µM.
The like results for `Cc1cc(NC(=O)c2ccc(F)c(C(F)(F)C(=O)N3[C@H](C)CNC[C@@H]3C)c2)ccc1F` [Example 214, 3-(2-((2S,6R)-2,6-dimethylpiperazin-1-yl)-1,1-difluoro-2-oxoethyl)-4-fluoro-N-(4-fluoro-3-methylphenyl)benzamide] were, in that order, 5 to 30 µM and below 5 µM.
Consider `Cc1cc(NC(=O)c2ccc(F)c(C(F)(F)C(=O)N3[C@@H]4COC[C@H]3CC(O)C4)c2)ccc1F` (stereo partly drawn) [Example 203, 3-(1,1-difluoro-2-((1R,5S)-7-hydroxy-3-oxa-9-azabicyclo[3.3.1]nonan-9-yl)-2-oxoethyl)-4-fluoro-N-(4-fluoro-3-methylphenyl)benzamide], for which, in series [1], the CC50 at 7 days lay in the range of 5 to 30 µM. The EC50 in series [2] is below 5 µM.
`N#Cc1cc(NC(=O)c2ccc(F)c(C(F)(F)C(=O)N3[C@@H]4CC[C@H]3C[C@H](O)C4)c2)ccc1F` [Example 193, N-(3-cyano-4-fluorophenyl)-3-(1,1-difluoro-2-((1R,3s,5S)-3-hydroxy-8-azabicyclo[3.2.1]octan-8-yl)-2-oxoethyl)-4-fluorobenzamide]: in series [1], the CC50 at 7 days fell in the range of 5 to 30 µM. For the same molecule, the EC50 in series [2] was below 5 µM.
The like results for `O=C(Nc1ccnc(Cl)c1)c1ccc(F)c(C(F)(F)C(=O)N2CCC(O)CC2)c1` [Example 167, N-(2-chloropyridin-4-yl)-3-(1,1-difluoro-2-(4-hydroxypiperidin-1-yl)-2-oxoethyl)-4-fluorobenzamide] were, in that order, 5 to 30 µM and 5 to 30 µM.
The like results for `Cc1cc(NC(=O)c2cn(C)c(C(F)(F)C(=O)NC(C)(C)C)c2C)ccc1F` [Example 113, 5-(2-(tert-butylamino)-1,1-difluoro-2-oxoethyl)-N-(4-fluoro-3-methylphenyl)-1,4-dimethyl-1H-pyrrole-3-carboxamide] were, in that order, above 30 µM and below 5 µM.
The like results for `Cc1cc(NC(=O)c2ccc(F)c(C(F)(F)C(=O)N3CCC(B(O)O)CC3)c2)ccc1F` [Example 152, (1-(2,2-difluoro-2-(2-fluoro-5-((4-fluoro-3-methylphenyl)carbamoyl)phenyl)acetyl)piperidin-4-yl)boronic acid] were, in that order, 5 to 30 µM and below 5 µM.
In series [1], `CCn1ccc(C(=O)Nc2ccc(F)c(C)c2)c1C(F)(F)C(=O)NC(C)(C)C` [Example 135, 2-(2-(tert-butylamino)-1,1-difluoro-2-oxoethyl)-1-ethyl-N-(4-fluoro-3-methylphenyl)-1H-pyrrole-3-carboxamide] showed a CC50 at 7 days above 30 µM. Besides, the 50% effective concentration (EC50) in series [2] was in the range of 5 to 30 µM.
The molecule `O=C(Nc1ccc(F)c(Br)c1)c1ccc(F)c(C(F)(F)C(=O)N2CCC(O)CC2)c1` [Example 87, N-(3-bromo-4-fluorophenyl)-3-(1,1-difluoro-2-(4-hydroxypiperidin-1-yl)-2-oxoethyl)-4-fluorobenzamide] registered a CC50 at 7 days in series [1] of 5 to 30 µM. Further, the EC50 in series [2] is below 5 µM.
For `Cc1cc(NC(=O)c2ccn(C)c2C(F)(F)C(=O)NC(C)(C)CO)ccc1F` [Example 105, 2-(1,1-difluoro-2-((1-hydroxy-2-methylpropan-2-yl)amino)-2-oxoethyl)-N-(4-fluoro-3-methylphenyl)-1-methyl-1H-pyrrole-3-carboxamide] the same measures were above 30 µM and 5 to 30 µM.
Turning to `Cc1cc(NC(=O)c2ccc(F)c(C(F)(F)C(=O)NC34CC5CC(CC(O)(C5)C3)C4)c2)ccc1F` [Example 272, 3-(1,1-difluoro-2-(((1r,3s,5R,7S)-3-hydroxyadamantan-1-yl)amino)-2-oxoethyl)-4-fluoro-N-(4-fluoro-3-methylphenyl)benzamide], the CC50 at 7 days in series [1] was in the range of 5 to 30 µM. Besides, the EC50 in series [2] was 5 to 30 µM.
In the case of `Cc1cc(NC(=O)c2ccc(Cl)c(C(F)(F)C(=O)N3CCC(B(O)O)CC3)c2)ccc1F` [Example 148, (1-(2-(2-chloro-5-((4-fluoro-3-methylphenyl)carbamoyl)phenyl)-2,2-difluoroacetyl)piperidin-4-yl)boronic acid], in series [1], the CC50 at 7 days is above 30 µM. The EC50 in series [2] is below 5 µM.
For `COc1ccc(CNC(=O)C(F)(F)c2cc(C(=O)Nc3ccc(F)c(F)c3)ccc2F)c(OC)c1` [Example 64, N-(3,4-difluorophenyl)-3-(2-((2,4-dimethoxybenzyl)amino)-1,1-difluoro-2-oxoethyl)-4-fluorobenzamide] the same measures were 5 to 30 µM and 5 to 30 µM.
The like results for `Cc1cc(NC(=O)c2cc(C(F)(F)C(=O)N3CCC(B(O)O)CC3)n(C)c2)ccc1F` [Example 122, (1-(2,2-difluoro-2-(4-((4-fluoro-3-methylphenyl)carbamoyl)-1-methyl-1H-pyrrol-2-yl)acetyl)piperidin-4-yl)boronic acid] were, in that order, above 30 µM and 5 to 30 µM.
The like results for `O=C(Nc1ccc(F)c(Cl)c1)c1ccc(F)c(C(F)(F)C(=O)N2CCC(O)CC2)c1` [Example 85, N-(3-chloro-4-fluorophenyl)-3-(1,1-difluoro-2-(4-hydroxypiperidin-1-yl)-2-oxoethyl)-4-fluorobenzamide] were, in that order, 5 to 30 µM and below 5 µM.
Consider `Cc1cc(NC(=O)c2ccc(F)c(C(F)(F)C(=O)N3CCc4cn[nH]c4C3)c2)ccc1F` [Example 76, 3-(1,1-difluoro-2-oxo-2-(1,4,5,7-tetrahydro-6H-pyrazolo[3,4-c]pyridin-6-yl)ethyl)-4-fluoro-N-(4-fluoro-3-methylphenyl)benzamide], for which, in series [1], the CC50 at 7 days lay within 5 to 30 µM. Further, the EC50 in series [2] was below 5 µM.
